Assay results reported in patent publication US20090325959A1 (priority 2008, published 2009).
Where two headings read alike, the source gives them in different places. Values belong to the compound of their own block, whether it stands above or below them.

Columns and labels:
ROCK2 = biological target: T1, ROCK2 (Homo sapiens, UniProt O75116); test: Rho kinase inhibition assay (IMAP fluorescence polarization), ROCK2; assay type: biochemical;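 note: kinase reaction started with 10 µM ATP and run 60 min at room temperature, then phosphorylated substrate captured on IMAP beads for 30 min and fluorescence polarization read in mP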
T1 construct: purchased Upstate/Chemicon 14-451
T1 sequence (O75116 11-552 limits assumed): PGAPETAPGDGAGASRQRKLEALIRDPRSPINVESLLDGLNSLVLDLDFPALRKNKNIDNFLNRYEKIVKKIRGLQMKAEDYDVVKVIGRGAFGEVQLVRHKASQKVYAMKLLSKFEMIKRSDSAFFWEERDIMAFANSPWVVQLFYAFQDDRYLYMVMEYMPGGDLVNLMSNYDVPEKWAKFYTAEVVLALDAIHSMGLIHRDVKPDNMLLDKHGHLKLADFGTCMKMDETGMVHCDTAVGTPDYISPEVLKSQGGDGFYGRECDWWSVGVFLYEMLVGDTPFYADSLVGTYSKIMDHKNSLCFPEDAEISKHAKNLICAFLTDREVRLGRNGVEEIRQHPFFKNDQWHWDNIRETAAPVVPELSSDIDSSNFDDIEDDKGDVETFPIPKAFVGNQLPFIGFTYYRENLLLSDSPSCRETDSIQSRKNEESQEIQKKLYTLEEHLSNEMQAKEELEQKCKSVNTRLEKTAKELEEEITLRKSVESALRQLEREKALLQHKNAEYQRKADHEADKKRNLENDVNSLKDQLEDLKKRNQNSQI
Description: (§1) Following the pre-incubation, 10 μM ATP was added to initiate the reaction. After 60 minutes at room temperature, Molecular Devices IMAP™ binding solution was added to bind phosphorylated substrate. After 30 minutes of incubation in the presence of the IMAP™ beads, the fluorescence polarization was read and the ratio was reported as mP. IC50 values for compounds and EC50 values for ATP were calculated using the Prism software from Graphpad.

ROCK1 = biological target: T2, ROCK1 (Homo sapiens, UniProt Q13464); test: Rho kinase inhibition assay (IMAP fluorescence polarization), ROCK1; assay type: biochemical;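 note: kinase reaction run 60 min at room temperature, then phosphorylated substrate captured on IMAP beads for 30 min, with fluorescence polarization read in mP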
T2 construct: purchased Upstate/Chemicon 14-601
T2 sequence (Q13464 17-535 limits assumed): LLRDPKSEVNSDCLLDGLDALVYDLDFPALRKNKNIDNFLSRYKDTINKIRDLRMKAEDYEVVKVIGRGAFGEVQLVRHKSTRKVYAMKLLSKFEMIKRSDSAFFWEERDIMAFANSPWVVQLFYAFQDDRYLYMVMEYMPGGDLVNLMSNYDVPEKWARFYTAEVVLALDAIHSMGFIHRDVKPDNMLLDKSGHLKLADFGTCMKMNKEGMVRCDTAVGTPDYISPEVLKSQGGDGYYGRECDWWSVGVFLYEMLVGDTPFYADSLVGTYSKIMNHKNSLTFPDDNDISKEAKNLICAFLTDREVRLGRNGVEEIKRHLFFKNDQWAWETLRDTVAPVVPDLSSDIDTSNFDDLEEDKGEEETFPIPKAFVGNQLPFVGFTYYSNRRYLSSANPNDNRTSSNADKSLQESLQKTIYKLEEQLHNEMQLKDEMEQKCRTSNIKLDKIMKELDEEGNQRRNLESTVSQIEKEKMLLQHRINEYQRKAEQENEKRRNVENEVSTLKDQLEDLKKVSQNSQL
Description: as §1

[1] = 10 μM ATP, read-out: ROCK2 Ki, Avg

SMILES: CSc1nccc(CN2CC[C@@H](Nc3cccc4cnccc34)C2)n1 [Compound 2.082, (R)-N-(1-((2-(methylthio)pyrimidin-4-yl)methyl)pyrrolidin-3-yl)isoquinolin-5-amine]
Ki (ROCK2; [1]): 9 nM
Ki (ROCK2; average Ki, read-out: ROCK2 Ki): 9 nM
Ki (ROCK1; Avg, 10 μM ATP): 132 nM
Ki (ROCK1; average Ki): 132 nM

SMILES: NCc1cccc(CN2CCC[C@H](Nc3ccc4[nH]ncc4c3)C2)c1 [Compound 1.184, (S)-N-(1-(3-(aminomethyl)benzyl)piperidin-3-yl)-1H-indazol-5-amine]
Ki (ROCK2; [1]): 90.9 nM
Ki (ROCK1; Avg, 10 μM ATP): 843 nM

SMILES: c1cc(N[C@@H]2CCN(Cc3cnccn3)C2)c2ccncc2c1 [Compound 2.086, (R)-N-(1-(pyrazin-2-ylmethyl)pyrrolidin-3-yl)isoquinolin-5-amine]
Ki (ROCK2; [1]): 358 nM
Ki (ROCK1; Avg, 10 μM ATP): 1250 nM

SMILES: O=C(O)COc1cccc(CN2CC[C@@H](Nc3cccc4cnccc34)C2)c1 [Compound 2.044, (R)-2-(3-((3-(isoquinolin-5-ylamino)pyrrolidin-1-yl)methyl)phenoxy)acetic acid]
Ki (ROCK2; [1]): 24.1 nM
Ki (ROCK1; Avg, 10 μM ATP): 81.4 nM

SMILES: OCCOc1cccc(CN2CCC(Nc3ccc4[nH]ncc4c3)CC2)c1 [Compound 1.130, 2-(3-((4-(1H-indazol-5-ylamino)piperidin-1-yl)methyl)phenoxy)ethanol]
Ki (ROCK2; [1]): 142 nM
Ki (ROCK1; Avg, 10 μM ATP): 577 nM

SMILES: NCc1cccc(CN2CCC[C@@H](Nc3ccc4[nH]ncc4c3)C2)c1 [Compound 1.235, (R)-N-(1-(3-(aminomethyl)benzyl)piperidin-3-yl)-1H-indazol-5-amine]
Ki (ROCK2; [1]): 335 nM
Ki (ROCK1; Avg, 10 μM ATP): 1390 nM

SMILES: c1cc(N[C@@H]2CCN(Cc3ccc4c(c3)OCCO4)C2)c2ccncc2c1 [Compound 2.056, (R)-N-(1-((2,3-dihydrobenzo[b][1,4]dioxin-6-yl)methyl)pyrrolidin-3-yl)isoquinolin-5-amine]
Ki (ROCK2; [1]): 48.7 nM
Ki (ROCK1; Avg, 10 μM ATP): 107 nM

SMILES: CS(=O)(=O)c1ccc(CN2CCC[C@@H](Nc3ccc4[nH]ncc4c3)C2)cc1 [Compound 1.205, (R)-N-(1-(4-(methylsulfonyl)benzyl)piperidin-3-yl)-1H-indazol-5-amine]
Ki (ROCK2; [1]): 46.4 nM
Ki (ROCK1; Avg, 10 μM ATP): 498 nM

SMILES: CS(=O)(=O)c1cccc(CN2CCC[C@@H](Nc3ccc4[nH]ncc4c3)C2)c1 [Compound 1.160, (R)-N-(1-(3-(methylsulfonyl)benzyl)piperidin-3-yl)-1H-indazol-5-amine]
Ki (ROCK2; [1]): 49.4 nM
Ki (ROCK1; Avg, 10 μM ATP): 218 nM

SMILES: NCc1ccc(CN2CCC[C@@H](Nc3ccc4[nH]ncc4c3)C2)cc1 [Compound 1.188, (R)-N-(1-(4-(aminomethyl)benzyl)piperidin-3-yl)-1H-indazol-5-amine]
Ki (ROCK2; read-out: ROCK2 Ki, Avg): 653 nM

SMILES: COc1c(CN2CC[C@@H](Nc3cccc4cnccc34)C2)cccc1NS(=O)(=O)N(C)C [Compound 2.097]
Ki (ROCK1; Avg, 10 μM ATP): 35.4 nM
Ki (ROCK1; average Ki): 35.4 nM

Ki (ROCK2; [1]): 125 nM
SMILES: CC1CNCCN1S(=O)(=O)c1cccc2cnccc12 (stereo not drawn) [Compound H7, reference compound]

SMILES: CN(C)S(=O)(=O)Nc1cccc(CN2CCC[C@H](Nc3ccc4[nH]ncc4c3)C2)c1 [Compound 1.261]
Ki (ROCK1; Avg, 10 μM ATP): 307 nM
Ki (ROCK1; average Ki): 307 nM

SMILES: COc1nccc2c(N[C@@H]3CCN(Cc4ccc(C)c(OCCO)c4)C3)cccc12 [Compound 2.094, (R)-2-(5-((3-(1-methoxyisoquinolin-5-ylamino)pyrrolidin-1-yl)methyl)-2-methylphenoxy)ethanol]
Ki (ROCK1; Avg, 10 μM ATP): 16600 nM

SMILES: Clc1ccc(CN2CC[C@@H](Nc3ccc4[nH]ncc4c3)C2)cc1 [Compound 1.241, (R)-N-(1-(4-chlorobenzyl)pyrrolidin-3-yl)-1H-indazol-5-amine]
Ki (ROCK1; Avg, 10 μM ATP): 65.1 nM

SMILES: Cc1ccc(CN2CC[C@@H](Nc3cccc4cnccc34)C2)cc1NS(=O)(=O)N(C)C [Compound 2.077]
Ki (ROCK1; Avg, 10 μM ATP): 33.7 nM
Ki (ROCK1; average Ki): 33.7 nM

SMILES: Cc1c(CN2CCC[C@H](Nc3ccc4[nH]ncc4c3)C2)cccc1NS(=O)(=O)N(C)C [Compound 1.275]
Ki (ROCK1; Avg, 10 μM ATP): 402 nM
Ki (ROCK1; average Ki): 402 nM

SMILES: NC(=O)COc1cccc(CN2CCC[C@@H](Nc3ccc4[nH]ncc4c3)C2)c1 [Compound 1.098, 2-(3-((3-(1H-indazol-5-ylamino)piperidin-1-yl)methyl)phenoxy)acetamide]
Ki (ROCK2; [1]): 25 nM
